ChEMBL document CHEMBL1681673, “Anti-tumor pyrimidinylpiperazines bind to the prosurvival Bcl-2 protein family member Bcl-XL” (Bioorg Med Chem Lett, 2011)

Biological target: Bcl-2-like protein 1 (Homo sapiens, UniProt Q07817)
Experiment: Binding affinity to Bcl-xL after 2 hrs by fluorescein-labeled Bak-BH3 peptide competition binding assay
Conditions: not given

Chain of Bcl-2-like protein 1 (Q07817 whole entry): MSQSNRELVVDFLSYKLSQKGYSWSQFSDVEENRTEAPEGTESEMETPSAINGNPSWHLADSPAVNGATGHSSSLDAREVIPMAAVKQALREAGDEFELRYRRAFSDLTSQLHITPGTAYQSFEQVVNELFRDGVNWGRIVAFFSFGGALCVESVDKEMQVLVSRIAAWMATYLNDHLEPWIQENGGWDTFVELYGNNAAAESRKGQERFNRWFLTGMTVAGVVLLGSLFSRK

Row | Ki | SMILES
1 | 0.52 µM | Oc1cccc(CN2CCN(c3ncc(Cc4ccccc4)cn3)CC2)c1
2 | 0.17 µM | Nc1ccc(Cl)c(CN2CCN(c3ncc(Cc4ccccc4)cn3)CC2)c1
3 | 0.127 µM | c1ccc(Cc2cnc(N3CCN(Cc4ccccc4-c4cn[nH]c4)CC3)nc2)cc1

System: A549
Experiment: Growth inhibition of human A549 cells after 24 hrs by SRB assay
Format: functional
Conditions: A549, 24 h

Row | GI50 | SMILES
4 | 51.1 µM | Oc1cccc(CN2CCN(c3ncc(Cc4ccccc4)cn3)CC2)c1
5 | 70.9 µM | CCc1cnc(N2CCN(Cc3ccccc3Br)CC2)nc1
6 | 86.5 µM | Brc1ccccc1CN1CCN(c2ncc(Cc3ccccc3)cn2)CC1
7 | 49.6 µM | c1ccc(Cc2cnc(N3CCN(Cc4ccccc4)CC3)nc2)cc1
8 | 15.1 µM | Nc1ccc(Cl)c(CN2CCN(c3ncc(Cc4ccccc4)cn3)CC2)c1
9 | 62.9 µM | CCc1cnc(N2CCN(Cc3cc(N)ccc3Cl)CC2)nc1
10 | > 100 µM | CCc1cnc(N2CCN(Cc3ccccc3)CC2)nc1
11 | > 100 µM | CCc1cnc(N2CCN(Cc3cccc(N)c3)CC2)nc1
12 | 67.2 µM | CCc1cnc(N2CCN(Cc3cc([N+](=O)[O-])ccc3Cl)CC2)nc1
13 | > 100 µM | O=[N+]([O-])c1ccc(Cl)c(CN2CCN(c3ncc(Cc4ccccc4)cn3)CC2)c1
14 | 23.7 µM | Oc1ccc(Br)c(CN2CCN(c3ncc(Cc4ccccc4)cn3)CC2)c1
15 | 75.4 µM | Nc1cccc(CN2CCN(c3ncc(Cc4ccccc4)cn3)CC2)c1
16 | 88 µM | CCc1cnc(N2CCN(Cc3cccc([N+](=O)[O-])c3)CC2)nc1
17 | 57.6 µM | CCc1cnc(N2CCN(Cc3cc(O)ccc3Br)CC2)nc1
18 | 9.91 µM | Fc1ccc(-c2cn[nH]c2)c(CN2CCN(c3ncc(Cc4ccccc4)cn3)CC2)c1
19 | 8.43 µM | c1ccc(Cc2cnc(N3CCN(Cc4ccccc4-c4cn[nH]c4)CC3)nc2)cc1
20 | > 100 µM | Fc1ccc(Br)c(CN2CCN(c3ncc(Cc4ccccc4)cn3)CC2)c1
21 | > 100 µM | CCc1cnc(N2CCN(Cc3cccc(O)c3)CC2)nc1
22 | 49.2 µM | CCc1cnc(N2CCN(Cc3cc(F)ccc3-c3cn[nH]c3)CC2)nc1
23 | > 100 µM | CCc1cnc(N2CCN(Cc3cc(F)ccc3Br)CC2)nc1
24 | 61.2 µM | O=[N+]([O-])c1cccc(CN2CCN(c3ncc(Cc4ccccc4)cn3)CC2)c1
25 | 51.4 µM | CCc1cnc(N2CCN(Cc3ccccc3-c3cn[nH]c3)CC2)nc1
